Assay results published in patent US7629447B2, “Dideoxynucleoside derivatives” (Wako Pure Chemical Industries, Ltd., priority 2006, dated 2009).
[5NF] = 5'-amino-2'-fluoro-2',5'-dideoxyuridine unit, linked through its 5'-amino group; d = 2'-deoxy (DNA)

Key:
[1] = test system: complementary DNA oligonucleotide (SEQ ID NO:7 or SEQ ID NO:8); assay: Thermal stability test, measurement of Tm (DNA/DNA match duplex); assay type: binding; details: for Tm of the duplex DNA/DNA compared with that of T-1 (control) and T-2 (control), in words: versus oligonucleotides of only naturally occurring nucleosides; for Tm of the duplex DNA/DNA compared with that of T-1 (control) and T-2 (control), in words / Tm / ΔTm: duplex DNA/DNA; for Tm: 3 μM each oligonucleotide, 10 mM sodium phosphate buffer, 100 mM sodium chloride, pH 7.0, 20 to 90° C. at 0.5° C. per minute, absorbance at 260 nm; for ΔTm: difference from the matching control (T-1 or T-2)
Text: Using commercially available dT-CE phosphoramidite and dA-CE phosphoramidite (both of them were produced by Glen research Corp.) as materials, also using 3′-dT-CPG (1 μmol) packed in a column (produced by Glen research Corp.) as a starting material, oligonucleotides were synthesized according to the same method as in Example 2, in order to obtain oligonucleotides which were each complementary to UNF-1 and UNF-2 obtained in Example 2, respectively. The base sequences of oligonucleotides complementary to UNF-1 (SEQ ID NO:7) and complementary to UNF-2 (SEQ ID NO:8) are shown in Table 2 below.
Using UNF-1 and UNF-2, which were synthesized in Example 2, and complementary oligonucleotides thereto shown in Table 2 as materials, duplexes DNA/DNA were prepared according to the conventional method (R. Kierzek et al., Biochemistry, 1986, vol. 25, pp. 7840-7846).
Using the obtained duplex DNA/DNA, thermal stability test was carried out according to the conventional method.
(§1) That is, using a UV-2450 SPECTROPHOTOMETER equipped with a temperature-variable device (produced by Shimadzu Corp.), the oligonucleotides were placed in 8 consecutive 10 mm cells under the nitrogen atmosphere, and 10 mM of sodium phosphate buffer and 100 mM of sodium chloride (pH 7.0) were added thereto so that the concentration of each oligonucleotide became 3 μM, then the temperature was increased from 20° C. to 90° C. with a climbing rate of 0.5° C. per minute, and absorbance at 260 nm were measured.
(§2) A duplex DNA/DNA formed between TN-1 synthesized in Comparative Example 2 and a complementary oligonucleotide thereto represented by SEQ ID NO:7, and a duplex formed DNA/DNA between TN-2 synthesized in Comparative Example 2 and a complementary oligonucleotide thereto represented by SEQ ID NO:8 were synthesized according to the same method as in Example 3. The thermal stability of these duplex nucleic acids obtained was examined according to the same method as in Example 3.
as §2, with “In addition, a duplex” for “A duplex”, “between T-1 (control)” for “between TN-1”, “duplex DNA” for “duplex formed DNA/DNA”, “between T-2 (control)” for “between TN-2”, “3. Thermal” for “3. The thermal”, “3. The results were shown together in FIG. 1.” for “3.”

[2] = test system: complementary RNA oligonucleotide (SEQ ID NO:9 or SEQ ID NO:10); assay: Thermal stability test, measurement of Tm (DNA/RNA match duplex); assay type: binding; details: for Tm of the duplex DNA/RNA compared with that of T-1 (control) and T-2 (control), in words: versus oligonucleotides of only naturally occurring nucleosides; for Tm of the duplex DNA/RNA compared with that of T-1 (control) and T-2 (control), in words / ΔTm / Tm: duplex DNA/RNA; for ΔTm: difference from the matching control (T-1 or T-2); for Tm: same method as Example 3 (3 μM, 10 mM sodium phosphate buffer, 100 mM sodium chloride, pH 7.0)
Description: as §1
Using commercially available rA-CE phosphoramidite, rU-CE phosphoramidite and rC-CE phosphoramidite as materials, also using 3′-dU-CPG (all of them were produced by Glen research Corp.) as a starting material, complementary oligonucleotides to each of UNF-1 and UNF-2 which were prepared in Example 2, were synthesized according to the same method as in Example 2.
Using UNF-1 and UNF-2, which were synthesized in Example 2, and the complementary oligonucleotides thereto shown in Table 2 as materials, a duplex DNA/RNA was prepared according to the conventional method (R. Kierzek et al., Biochemistry, 1986, vol. 25, pp. 7840-7846).
Using the obtained duplexes DNA/RNA, thermal stability test was carried out according to the same method as in Example 3.
A duplex DNA/RNA formed between TN-1 synthesized in Comparative Example 2 and a complementary oligonucleotide thereto represented by SEQ ID NO:9, and a duplex DNA/RNA formed between TN-2 synthesized in Comparative Example 2 and a complementary oligonucleotide thereto represented by SEQ ID NO:10 were synthesized according to the same method as in Example 4. Thermal stabilities of these duplex nucleic acids obtained were examined according to the same method as in Example 4.
In addition, a duplex DNA/RNA formed between T-1 (control) synthesized in Comparative Example 2 and a complementary oligonucleotide thereto represented by SEQ ID NO:9, and a duplex DNA formed between T-2 (control) synthesized in Comparative Example 2 and a complementary oligonucleotide thereto represented by SEQ ID NO:10 were synthesized according to the same method as in […]. Thermal stabilities of these duplex nucleic acids obtained were examined according to the same method as in Example 4.

Substance | Tm of the duplex DNA/DNA compared with that of T-1 (control) and T-2 (control), in words [1] | Tm [1] [°C] | ΔTm [1] | Tm of the duplex DNA/RNA compared with that of T-1 (control) and T-2 (control), in words [2] | ΔTm [2] | Tm [2] [°C] | Tm compared with that of UNF-1, in words ([1]; duplex DNA/DNA (Table 3), two UNFs versus one UNF) | Tm compared with that of UNF-1, in words ([2]; duplex DNA/RNA (Table 5), two UNFs versus one UNF)
TN-2: SEQ ID NO:4, 5′-(AAG GAA T^NT^NG AGG AAA GA)-3′; T^N = introduced 5′-aminothymidine (comparative) (AAGGAANNGAGGAAAGA; 5'-aminothymidines, chemistry not fully specified) | lower | 48.3 | −5.2 | lower | −5.0 | 39 | – | –
T-1 (control): SEQ ID NO:5, 5′-d(AAG GAA ATG AGG AAA GA)-3′; oligonucleotide comprising only naturally occurring nucleosides (AAGGAAATGAGGAAAGA; unmodified DNA) | – | 52.9 | – | – | – | 42.1 | – | –
UNF-2: SEQ ID NO:2, 5′-(AAG GAA U^NFU^NFG AGG AAA GA)-3′; U^NF = introduced 5′-amino-2′-fluoro-2′,5′-dideoxyuridine (AAGGAAUUGAGGAAAGA; sugars from the 5' end d6 [5NF]2 d9, backbone not given here) | equivalent | 52.1 | −1.4 | equivalent | −0.5 | 43.5 | higher | higher
TN-1: SEQ ID NO:3, 5′-(AAG GAA AT^NG AGG AAA GA)-3′; T^N = introduced 5′-aminothymidine (comparative) (AAGGAAANGAGGAAAGA; 5'-aminothymidine, chemistry not fully specified) | lower | 50.6 | −2.3 | lower | −4.4 | 37.7 | – | –
UNF-1: SEQ ID NO:1, 5′-(AAG GAA AU^NFG AGG AAA GA)-3′; U^NF = introduced 5′-amino-2′-fluoro-2′,5′-dideoxyuridine (AAGGAAAUGAGGAAAGA; sugars from the 5' end d7 [5NF]1 d9, backbone not given here) | equivalent | 51.8 | −1.1 | equivalent | −0.2 | 41.9 | – | –
T-2 (control): SEQ ID NO:6, 5′-d(AAG GAA TTG AGG AAA GA)-3′; oligonucleotide comprising only naturally occurring nucleosides (AAGGAATTGAGGAAAGA; unmodified DNA) | – | 53.5 | – | – | – | 44 | – | –
